Calls of active or inactive are those of the source. No rule for the calls is given here.
biological target: Furin (Homo sapiens) (UniProt P09958); test: human furin inhibition, concentration series – biochemical, fluorescence intensity, IC50, dose response (AID 463182); conditions: purified furin, fluorogenic peptide substrate cleavage
Sequence (P09958 108-714 limits assumed): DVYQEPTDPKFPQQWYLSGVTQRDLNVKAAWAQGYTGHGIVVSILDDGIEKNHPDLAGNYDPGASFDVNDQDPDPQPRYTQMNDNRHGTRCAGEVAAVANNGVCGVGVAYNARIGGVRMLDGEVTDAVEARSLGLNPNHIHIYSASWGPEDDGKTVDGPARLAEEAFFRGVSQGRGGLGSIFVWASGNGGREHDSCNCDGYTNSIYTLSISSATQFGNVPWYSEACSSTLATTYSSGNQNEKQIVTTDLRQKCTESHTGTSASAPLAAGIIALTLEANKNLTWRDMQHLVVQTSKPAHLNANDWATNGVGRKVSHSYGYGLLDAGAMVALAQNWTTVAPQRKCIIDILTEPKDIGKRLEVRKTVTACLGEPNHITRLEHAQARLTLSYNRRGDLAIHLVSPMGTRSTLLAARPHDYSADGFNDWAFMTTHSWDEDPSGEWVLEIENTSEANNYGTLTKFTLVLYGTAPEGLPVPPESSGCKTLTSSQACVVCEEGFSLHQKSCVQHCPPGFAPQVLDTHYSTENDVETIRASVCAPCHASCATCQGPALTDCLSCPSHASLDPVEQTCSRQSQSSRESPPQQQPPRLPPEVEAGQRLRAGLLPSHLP

IC50 | SMILES
> 50 µM (inactive) | CC1(C)CC(=O)C(C=Nc2cccnc2)=C(O)C1
> 50 µM (inactive) | Cc1cccc(/N=C/C2=C(O)CC(C)(C)CC2=O)n1
> 50 µM (inactive) | CC1(C)CC(=O)C(/C=N/n2cnc3ccccc3c2=O)=C(O)C1

Reference: PubChem BioAssay AID463182 (University of Pittsburgh Molecular Library Screening Center, 2010)
